In patent US20250262201A1, “COMPOUNDS AND METHODS USEFUL FOR STABILIZING PHENYLALANINE HYDROXYLASE MUTATIONS” (Agios Pharmaceuticals, Inc., priority 2022, published 2025) one finds AC50 data, which are given here for 33 compounds.

This experiment concerns the target T1, human PAH with the R408W mutation (Homo sapiens, UniProt P00439, R408W).
T1 construct: expressed in transfected cells
T1 sequence (P00439 1-452 R408W): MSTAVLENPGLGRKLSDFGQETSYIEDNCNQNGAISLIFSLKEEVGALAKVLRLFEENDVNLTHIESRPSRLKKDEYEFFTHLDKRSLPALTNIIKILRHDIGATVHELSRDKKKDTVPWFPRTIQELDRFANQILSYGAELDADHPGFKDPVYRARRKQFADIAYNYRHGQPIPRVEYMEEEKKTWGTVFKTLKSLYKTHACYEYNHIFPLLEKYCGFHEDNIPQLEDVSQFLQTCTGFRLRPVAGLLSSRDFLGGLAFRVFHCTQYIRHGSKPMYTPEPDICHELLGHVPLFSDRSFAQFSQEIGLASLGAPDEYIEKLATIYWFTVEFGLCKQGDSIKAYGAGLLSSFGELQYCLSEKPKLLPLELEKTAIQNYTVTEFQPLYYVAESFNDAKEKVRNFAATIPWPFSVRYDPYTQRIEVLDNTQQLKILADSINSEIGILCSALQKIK
Briefly: Cell Based Phenylalanine Flux Assay. Also on record: scale not given here. The conditions noted are these: 13C-Tyrosine by LC-MS, average where tested multiple times.

[1] abbreviates: A375 cells expressing human R408W PAH, 24 hrs compound incubation, read-out: AC50.
[2] abbreviates: A375 R408W cells, 24 hrs with compound, then 20 μM sepiapterin and 800 μM 13C9,15N-Phenylalanine for 4 hours, read-out: AC50.
[3] abbreviates: A375 R408W cells, 24 hrs with compound, then 20 μM sepiapterin and 800 μM 13C9,15N-Phenylalanine for 4 hours.

Where two headings read alike, the source gives them in different places.

Broadly, the AC50 is the concentration at which the activity in the assay is half-maximal.

For `O=C(c1cnn(CC(F)(F)F)c1C(F)F)N1CCc2[nH]cnc2C1c1ccc2ccccc2n1` (stereo in doubt) [Example 125, (R)-(5-(difluoromethyl)-1-(2,2,2-trifluoroethyl)-1H-pyrazol-4-yl)(4-(quinolin-2-yl)-6,7-dihydro-1H-imidazo[4,5-c]pyridin-5(4H)-yl)methanone], the AC50 under setting [1] was 1 to 5 µM.

Take `Cn1ccc(-c2nnc(C(=O)N3CCc4[nH]cnc4C3c3ccc4ccccc4n3)o2)n1` (stereo in doubt) [Example 85, (R)-(5-(1-methyl-1H-pyrazol-3-yl)-1,3,4-oxadiazol-2-yl)(4-(quinolin-2-yl)-6,7-dihydro-1H-imidazo[4,5-c]pyridin-5(4H)-yl)methanone]: the half-maximal activity concentration (AC50) under setting [1] was less than 0.5 µM.

With `Fc1ccc(-c2nnc(N3CCc4[nH]cnc4[C@@H]3c3cc4ccccc4cn3)o2)cc1` [Example 336, (S)-2-(4-fluorophenyl)-5-(4-(isoquinolin-3-yl)-6,7-dihydro-1H-imidazo[4,5-c]pyridin-5(4H)-yl)-1,3,4-oxadiazole], the AC50 under setting [1] is greater than 5 µM.

With `Cn1cc(-c2nnc(C(=O)N3CCc4[nH]cnc4C3c3ccc4ccccc4n3)o2)cn1` (stereo in doubt) [Example 47, (R)-(5-(1-methyl-1H-pyrazol-4-yl)-1,3,4-oxadiazol-2-yl)(4-(quinolin-2-yl)-6,7-dihydro-1H-imidazo[4,5-c]pyridin-5(4H)-yl)methanone], under setting [1], the half-maximal activity concentration (AC50) lay within 0.5 to 1 µM.

On to `C[C@@H]1CN(C(=O)c2nnc(C3CC3)o2)[C@H](c2cc3ccccc3cn2)c2nc[nH]c21` [Example 513, (5-cyclopropyl-1,3,4-oxadiazol-2-yl)((4R,7R)-4-(isoquinolin-3-yl)-7-methyl-6,7-dihydro-1H-imidazo[4,5-c]pyridin-5(4H)-yl)methanone], for which the AC50 under setting [1] fell in the range of 0.5 to 1 µM.

Take `COCc1ccc2c(C(=O)N3CCc4[nH]cnc4C3c3ccc4ccccc4n3)cnn2c1` (stereo not drawn): the AC50 under setting [2] is greater than 5 µM.

For the compound `CC1CN(C(=O)c2nnc(N(C)C)o2)C(c2cc3ccccc3cn2)c2nc[nH]c21` (stereo not drawn), the AC50 under setting [2] was in the range of 1 to 5 µM.

Regarding `COCc1nnc(C(=O)N2CCc3[nH]cnc3C2c2ccc3ccccc3n2)o1` (stereo not drawn), the AC50 under setting [2] lay in the range of 1 to 5 µM.

`O=C(c1ocnc1C(F)(F)F)N1CCc2[nH]cnc2[C@H]1c1cn2ccccc2n1` [Example 234, (R)-(4-(imidazo[1,2-a]pyridin-2-yl)-6,7-dihydro-1H-imidazo[4,5-c]pyridin-5(4H)-yl)(4-(trifluoromethyl)oxazol-5-yl)methanone]: the AC50 under setting [1] is less than 0.5 µM.

As for `Cc1nnc(C(=O)N2CC(C)c3[nH]cnc3C2c2cc3ccccc3cn2)o1` [(4S, 7S) diastereomer of 3-[7-methyl-5-(5-methyl-1,3,4-oxadi], under setting [3], the AC50 entry is listed as “E, E”.

For `Cc1ccc(-c2nnc(C(=O)N3CCc4[nH]cnc4[C@H]3c3cc4ccccc4cn3)o2)nc1` [Example 439, (R)-(4-(isoquinolin-3-yl)-6,7-dihydro-1H-imidazo[4,5-c]pyridin-5(4H)-yl)(5-(5-methylpyridin-2-yl)-1,3,4-oxadiazol-2-yl)methanone], the AC50 under setting [1] was less than 0.5 µM.

Turning to `Cc1ncoc1C(=O)N1CC(C)c2[nH]cnc2C1c1cc2ccccc2cn1` [(4S, 7S) diastereomer of 3-[7-methyl-5-(4-methyl-1,3-oxazole], the AC50 result under setting [3] is on record as “E, E”.

`O=C(c1cnn2cc(-c3ccccn3)ccc12)N1CCc2[nH]cnc2[C@H]1c1cc2ccccc2cn1` [Example 461, (R)-(4-(isoquinolin-3-yl)-6,7-dihydro-1H-imidazo[4,5-c]pyridin-5(4H)-yl)(6-(pyridin-2-yl)pyrazolo[1,5-a]pyridin-3-yl)methanone]: under setting [1], the AC50 is less than 0.5 µM.

On to `CC1CN(C(=O)c2nnc(C(C)(C)O)o2)C(c2cc3ccccc3cn2)c2nc[nH]c21` [(4S, 7S) diastereomer of 2-{5-[4-(isoquinolin-3-yl)-7-methyl], for which the AC50 entry under setting [3] is “E, E”.

For the compound `O=C(c1nnc(-c2ccc(C(F)(F)F)cc2)o1)N1CCc2[nH]cnc2C1c1ccc2ccccc2n1` (stereo not drawn), under setting [2], the AC50 lay in the range of 1 to 5 µM.

`O=C(c1nnc(-c2ccccn2)o1)N1CCc2[nH]cnc2C1c1ccc2ccccc2n1` (stereo in doubt) [Example 45, (R)-(5-(pyridin-2-yl)-1,3,4-oxadiazol-2-yl)(4-(quinolin-2-yl)-6,7-dihydro-1H-imidazo[4,5-c]pyridin-5(4H)-yl)methanone]: under setting [1], the AC50 was less than 0.5 µM.

Take `Cc1ncoc1C(=O)N1CCc2[nH]cnc2[C@@H]1c1cn2ccccc2n1` [Example 227, (S)-(4-(imidazo[1,2-a]pyridin-2-yl)-6,7-dihydro-1H-imidazo[4,5-c]pyridin-5(4H)-yl)(4-methyloxazol-5-yl)methanone]: under setting [1], the concentration at half-maximal activity (AC50) is greater than 5 µM.

Regarding `O=C(c1nnc(-c2ccc(F)cn2)o1)N1CCc2[nH]cnc2[C@@H]1c1cc2ccccc2cn1` [Example 341, (S)-(5-(5-fluoropyridin-2-yl)-1,3,4-oxadiazol-2-yl)(4-(isoquinolin-3-yl)-6,7-dihydro-1H-imidazo[4,5-c]pyridin-5(4H)-yl)methanone], the AC50 under setting [1] was greater than 5 µM.

Take `CC(C)(O)c1nc(Cl)c(C(=O)N2CCc3[nH]cnc3C2c2ccc3ccccc3n2)o1` (stereo in doubt) [Example 113, (R)-(4-chloro-2-(2-hydroxypropan-2-yl)oxazol-5-yl)(4-(quinolin-2-yl)-6,7-dihydro-1H-imidazo[4,5-c]pyridin-5(4H)-yl)methanone]: the AC50 under setting [1] was less than 0.5 µM.

In the case of `COCCc1ccc2c(C(=O)N3CCc4[nH]cnc4[C@H]3c3cc4ccccc4cn3)cnn2c1` [Example 453, (R)-(4-(isoquinolin-3-yl)-6,7-dihydro-1H-imidazo[4,5-c]pyridin-5(4H)-yl)(6-(2-methoxyethyl)pyrazolo[1,5-a]pyridin-3-yl)methanone], the AC50 under setting [1] is less than 0.5 µM.

Turning to `C[C@@H]1CN(C(=O)c2oc(-c3ccccn3)nc2C2CC2)[C@H](c2cc3ccccc3cn2)c2nc[nH]c21` [Example 410, (4-cyclopropyl-2-(pyridin-2-yl)oxazol-5-yl)((4R,7R)-4-(isoquinolin-3-yl)-7-methyl-6,7-dihydro-1H-imidazo[4,5-c]pyridin-5(4H)-yl)methanone], under setting [1], the AC50 was less than 0.5 µM.

`CC(C)(C)c1ncc(C(=O)N2CCc3[nH]cnc3[C@H]2c2cn3ccccc3n2)s1` [Example 245, (R)-(2-(tert-butyl)thiazol-5-yl)(4-(imidazo[1,2-a]pyridin-2-yl)-6,7-dihydro-1H-imidazo[4,5-c]pyridin-5(4H)-yl)methanone]: the AC50 under setting [1] was in the range of 0.5 to 1 µM.

Turning to `CC(C)(O)c1cc(C(=O)N2CCc3[nH]cnc3C2c2ccc3ccccc3n2)no1` (stereo not drawn), under setting [2], the AC50 is greater than 5 µM.

As to `O=C(c1nnc(NC2CC2)o1)N1CCc2[nH]cnc2[C@H]1c1cc2ccccc2cn1` [Example 370, (R)-(5-(cyclopropylamino)-1,3,4-oxadiazol-2-yl)(4-(isoquinolin-3-yl)-6,7-dihydro-1H-imidazo[4,5-c]pyridin-5(4H)-yl)methanone], the AC50 under setting [1] was 0.5 to 1 µM.

As to `O=C(c1ccnn1C(F)F)N1CCc2[nH]cnc2C1c1ccc2ccccc2n1` (stereo in doubt) [Example 81, (R)-(1-(difluoromethyl)-1H-pyrazol-5-yl)(4-(quinolin-2-yl)-6,7-dihydro-1H-imidazo[4,5-c]pyridin-5(4H)-yl)methanone], the AC50 under setting [1] was less than 0.5 µM.

On to `Cc1nc(N2CCOCC2)oc1C(=O)N1CCc2[nH]cnc2C1c1ccc2ccccc2n1` (stereo not drawn), for which, under setting [2], the AC50 is greater than 5 µM.

Consider `O=C(c1nnc(-c2ccc(F)cc2F)o1)N1CCc2[nH]cnc2C1c1ccc2ccccc2n1` (stereo in doubt) [Example 75, (R)-(5-(2,4-difluorophenyl)-1,3,4-oxadiazol-2-yl)(4-(quinolin-2-yl)-6,7-dihydro-1H-imidazo[4,5-c]pyridin-5(4H)-yl)methanone], for which the AC50 under setting [1] was in the range of 0.5 to 1 µM.

Turning to `O=C(c1ocnc1-c1ccccn1)N1CCc2[nH]cnc2C1c1ccc2ccccc2n1` (stereo not drawn), the AC50 under setting [2] lay within 1 to 5 µM.

Regarding `O=C(c1cnn2cc(-c3cccnc3)ccc12)N1CCc2[nH]cnc2[C@H]1c1cc2ccccc2cn1` [Example 475, (R)-(4-(isoquinolin-3-yl)-6,7-dihydro-1H-imidazo[4,5-c]pyridin-5(4H)-yl)(6-(pyridin-3-yl)pyrazolo[1,5-a]pyridin-3-yl)methanone], the AC50 under setting [1] was less than 0.5 µM.

On to `O=C(c1nnc(-c2cccnc2)o1)N1CCc2[nH]cnc2[C@H]1c1ncc2ccccc2n1` [Example 177, (S)-(5-(pyridin-3-yl)-1,3,4-oxadiazol-2-yl)(4-(quinazolin-2-yl)-6,7-dihydro-1H-imidazo[4,5-c]pyridin-5(4H)-yl)methanone], for which the AC50 under setting [1] is less than 0.5 µM.

For `O=C(c1cnco1)N1CCc2[nH]cnc2[C@@H]1c1cc2ccccc2cn1` [Example 321, (S)-(4-(isoquinolin-3-yl)-6,7-dihydro-1H-imidazo[4,5-c]pyridin-5(4H)-yl)(oxazol-5-yl)methanone], the AC50 under setting [1] was 1 to 5 µM.

`Cn1nc(C(F)(F)F)nc1C(=O)N1CCc2[nH]cnc2C1c1ccc2ccccc2n1` (stereo not drawn): the AC50 under setting [2] was 1 to 5 µM.

Consider `O=C(CCC1CC1)N1CCc2[nH]cnc2[C@H]1c1cn2ccccc2n1` [Example 242, (R)-3-cyclopropyl-1-(4-(imidazo[1,2-a]pyridin-2-yl)-6,7-dihydro-1H-imidazo[4,5-c]pyridin-5(4H)-yl)propan-1-one], for which the half-maximal activity concentration (AC50) under setting [1] is less than 0.5 µM.
